Assay results published in US11147765B1, “Instantly dissolving buccal films” (King Abdulaziz University, priority 2020, dated 2021).
Structures can show the parent of a compound that is named as a salt.

Key:
[1] = Dissolution screening of DPX and its physical mixtures with organic acids and cyclodextrins; assay type: physicochemical; conditions: phosphate buffer pH 6.8, 37±0.5° C., in absence of excipients
Description: Various organic acids (CA, MA, and TA) and cyclodextrins β3-CD and HP-β-CD) were assessed as acidifiers and hydrophilic solubilizers to enhance the dissolution of DPX. Equivalent amounts of DPX and each of the studied excipients were thoroughly mixed for 5 min. The dissolution behavior of specified quantity of each mixture equivalent to 30 mg DPX was done in 900 mL phosphate buffer (pH 6.8) using USP Dissolution Tester, apparatus II (DT 720, Erweka, Germany) operating at 50 rpm at 37±0.5° C.. Aliquot samples were withdrawn after 2 and 15 minutes and replaced with equal volume of fresh buffer. Samples were filtered through a 0.22 μm Millipore filter, and the concentration of DPX was quantified spectrophotometrically at 292 nm (UV-2600 PC; Shimadzu, Kyoto, Japan). The dissolution study was done in triplicate.

[2] = reported [26]; cited from earlier work

In the case of CN(C)[C@@H](CCOc1cccc2ccccc12)c1ccccc1 [DPX, Dapoxetine hydrochloride], the “percent dissolved after 2 minutes” value [1] is listed as 2.13±0.09%, the “percent dissolved after 15 minutes” value [1] is listed as 2.89±0.06% and the “solubility in phosphate buffer pH 6.8” value [2] is listed as 0.26 μg·mL^−1.
